This note sets out measurements from ChEMBL document CHEMBL1136812, “Structure-activity relationships of dimethindene derivatives as new M2-selective muscarinic receptor antagonists” (J Med Chem, 2003).

Common to all, as to assay type: cell-based
Test [1] has as its target T1, Muscarinic acetylcholine receptor M4 (Homo sapiens, UniProt P08173).
T1 sequence (P08173 whole entry): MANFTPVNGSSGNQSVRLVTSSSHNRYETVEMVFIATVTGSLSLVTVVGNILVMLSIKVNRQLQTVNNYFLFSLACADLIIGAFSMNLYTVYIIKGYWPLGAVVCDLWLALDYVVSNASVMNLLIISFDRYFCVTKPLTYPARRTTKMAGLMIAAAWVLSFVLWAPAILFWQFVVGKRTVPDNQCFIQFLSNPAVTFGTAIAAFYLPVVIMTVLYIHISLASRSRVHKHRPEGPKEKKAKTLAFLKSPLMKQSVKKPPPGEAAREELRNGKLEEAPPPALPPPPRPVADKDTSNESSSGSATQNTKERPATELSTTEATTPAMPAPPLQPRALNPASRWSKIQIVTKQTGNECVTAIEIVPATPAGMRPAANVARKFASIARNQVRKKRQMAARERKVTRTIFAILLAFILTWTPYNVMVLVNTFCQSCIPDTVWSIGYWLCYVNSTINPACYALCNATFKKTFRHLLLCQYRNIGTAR
As to the kind of experiment: Binding affinity towards cloned human muscarinic acetylcholine receptor M4 stably expressed in CHO-K1 cells using [3H]N-methylscopolamine.

The target of test [2] is T2, Muscarinic acetylcholine receptor M5 (Homo sapiens, UniProt P08912).
T2 sequence (P08912 whole entry): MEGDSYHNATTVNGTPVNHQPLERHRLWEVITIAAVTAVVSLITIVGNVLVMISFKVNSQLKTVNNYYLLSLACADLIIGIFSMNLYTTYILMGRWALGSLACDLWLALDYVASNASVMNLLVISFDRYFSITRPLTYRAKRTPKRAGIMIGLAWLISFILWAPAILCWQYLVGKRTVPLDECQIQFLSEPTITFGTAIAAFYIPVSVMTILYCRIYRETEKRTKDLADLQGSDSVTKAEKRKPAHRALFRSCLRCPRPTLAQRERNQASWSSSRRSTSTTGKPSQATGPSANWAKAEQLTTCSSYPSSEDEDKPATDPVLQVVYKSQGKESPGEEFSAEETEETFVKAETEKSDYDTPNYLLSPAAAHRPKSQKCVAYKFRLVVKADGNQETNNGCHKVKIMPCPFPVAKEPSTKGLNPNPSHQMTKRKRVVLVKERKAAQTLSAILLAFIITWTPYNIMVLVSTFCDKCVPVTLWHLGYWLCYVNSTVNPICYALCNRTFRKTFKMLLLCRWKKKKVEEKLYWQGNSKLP
Kind of test: Binding affinity towards cloned human muscarinic acetylcholine receptor M5 stably expressed in CHO-K1 cells using [3H]N-methylscopolamine.

The target in test [3] is T3, Muscarinic acetylcholine receptor M1 (Homo sapiens, UniProt P11229).
T3 sequence (P11229 whole entry): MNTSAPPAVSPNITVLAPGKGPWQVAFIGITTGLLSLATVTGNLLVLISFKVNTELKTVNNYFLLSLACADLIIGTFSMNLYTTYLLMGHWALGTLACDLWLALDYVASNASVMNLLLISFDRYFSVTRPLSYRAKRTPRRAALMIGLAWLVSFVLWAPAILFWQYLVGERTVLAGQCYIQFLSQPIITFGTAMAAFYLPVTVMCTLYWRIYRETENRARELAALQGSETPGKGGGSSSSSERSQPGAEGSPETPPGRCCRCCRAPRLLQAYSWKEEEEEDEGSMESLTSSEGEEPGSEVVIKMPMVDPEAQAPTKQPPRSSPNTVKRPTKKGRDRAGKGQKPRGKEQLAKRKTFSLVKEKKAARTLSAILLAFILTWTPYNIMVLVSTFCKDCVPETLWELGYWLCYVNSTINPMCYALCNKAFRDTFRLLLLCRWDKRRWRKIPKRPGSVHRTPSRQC
Kind of test: Binding affinity towards cloned human muscarinic acetylcholine receptor M1 stably expressed in CHO-K1 cells using [3H]N-methylscopolamine.

For test [4], the target named is T4, Muscarinic acetylcholine receptor M2 (Homo sapiens, UniProt P08172).
T4 sequence (P08172 whole entry): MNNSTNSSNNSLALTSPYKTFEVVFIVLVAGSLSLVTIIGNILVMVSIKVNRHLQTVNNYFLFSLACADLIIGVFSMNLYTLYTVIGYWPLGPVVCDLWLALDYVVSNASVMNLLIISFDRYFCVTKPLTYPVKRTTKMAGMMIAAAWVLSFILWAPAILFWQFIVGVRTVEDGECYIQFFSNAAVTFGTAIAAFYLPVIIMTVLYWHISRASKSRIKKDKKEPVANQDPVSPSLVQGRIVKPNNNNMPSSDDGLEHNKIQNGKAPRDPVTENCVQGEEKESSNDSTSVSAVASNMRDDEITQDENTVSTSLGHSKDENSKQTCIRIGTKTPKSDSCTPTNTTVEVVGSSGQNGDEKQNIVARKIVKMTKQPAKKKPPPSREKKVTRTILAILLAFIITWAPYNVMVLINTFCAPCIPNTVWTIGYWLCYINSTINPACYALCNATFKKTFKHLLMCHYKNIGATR
Kind of test: Binding affinity towards cloned human muscarinic acetylcholine receptor M2 stably expressed in CHO-K1 cells using [3H]N-methylscopolamine.

The target of test [5] is Muscarinic acetylcholine receptor M3 (Homo sapiens, UniProt P20309). As to the kind of experiment: Binding affinity towards cloned human muscarinic acetylcholine receptor M3 stably expressed in CHO-K1 cells using [3H]N-methylscopolamine.
Sequence of Muscarinic acetylcholine receptor M3 (P20309 whole entry): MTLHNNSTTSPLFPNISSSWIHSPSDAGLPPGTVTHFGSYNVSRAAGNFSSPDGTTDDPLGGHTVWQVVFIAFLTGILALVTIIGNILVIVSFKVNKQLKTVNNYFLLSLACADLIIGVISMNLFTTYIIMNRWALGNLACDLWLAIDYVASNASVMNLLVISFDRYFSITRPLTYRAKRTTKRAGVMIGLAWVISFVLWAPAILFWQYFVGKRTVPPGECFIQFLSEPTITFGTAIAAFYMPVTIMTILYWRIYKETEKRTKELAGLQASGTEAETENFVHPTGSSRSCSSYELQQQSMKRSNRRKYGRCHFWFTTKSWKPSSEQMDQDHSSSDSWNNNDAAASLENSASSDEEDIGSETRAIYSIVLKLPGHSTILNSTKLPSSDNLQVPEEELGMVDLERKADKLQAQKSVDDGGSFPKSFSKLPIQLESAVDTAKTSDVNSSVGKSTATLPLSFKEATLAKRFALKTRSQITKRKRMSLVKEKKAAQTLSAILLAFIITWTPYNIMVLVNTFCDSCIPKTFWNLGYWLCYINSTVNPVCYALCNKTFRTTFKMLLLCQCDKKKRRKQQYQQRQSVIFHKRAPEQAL

Usually Ki stands for the equilibrium dissociation constant of an inhibitor or competing ligand from its target. Read a high Ki as weaker binding. Regarding `COc1ccc2c(c1)CC(CCN(C)C)=C2C(C)c1ccccn1` (stereo not given), the Ki was 4.17 µM in test [1]; 6.03 µM in test [2]; 1.55 µM in test [3]; 1.07 µM in test [4]; 1.17 µM in test [5].
The like results for `CN(C)CCNC(=O)C1=C(Cc2ccncc2)c2ccccc2C1` were, in that order, 87.1 µM, 41.7 µM, 53.7 µM, 93.3 µM and 135 µM.
On the same counts, the results for `CCN(CC)CCC1=C(C(C)c2ccccn2)c2ccccc2C1` (stereo not given) are 0.457 µM, 2.09 µM, 0.447 µM, 0.0447 µM and 0.955 µM.
The like results for `CC(C1=C(CCN(C)C)Cc2ccc(Cl)cc21)c1ccccn1` (stereo not given) were, in that order, 0.741 µM, 0.912 µM, 0.347 µM, 0.363 µM and 0.501 µM.
On to `CC(C1=C(CCCN(C)C)Cc2ccccc21)c1ccccn1` (stereo not given), for which the Ki was 1.7 µM in test [1]; 3.24 µM in test [2]; 0.891 µM in test [3]; 0.263 µM in test [4]; 0.575 µM in test [5].
Regarding `CN(C)CCC1=C(Cc2ccccn2)c2ccccc2C1`, the Ki is 2.4 µM in test [1]; 3.63 µM in test [2]; 1.58 µM in test [3]; 0.234 µM in test [4]; 1.55 µM in test [5].
The like results for `CN(C)CCOC(=O)C1=C(Cc2cccnc2)c2ccccc2C1` were, in that order, 13.2 µM, 11.2 µM, 3.55 µM, 6.03 µM and 8.13 µM.
On to `CN(C)CCC1=C(Cc2ccncc2)c2ccccc2C1`, for which the Ki in test [1] is 8.32 µM; in test [2], 10.2 µM; in test [3], 4.27 µM; in test [4], 6.76 µM; in test [5], 11.7 µM.
The like results for `CCCC(C1=C(CCN(C)C)Cc2ccccc21)c1ccccn1` (stereo not given) were, in that order, 0.617 µM, 0.302 µM, 0.245 µM, 0.676 µM and 0.631 µM.
The like results for `CC(C1=C(CCN(C)C)Cc2ccccc21)c1ccccc1` (stereo not given) were, in that order, 0.372 µM, 0.309 µM, 0.158 µM, 0.257 µM and 0.288 µM.
The like results for `CN(C)CCC1=C(C(c2ccccc2)c2ccccn2)c2ccccc2C1` (stereo not given) were, in that order, 0.129 µM, 0.0661 µM, 0.0437 µM, 0.229 µM and 0.0676 µM.
For the compound `CC(C1=C(CN(C)C(C)C)Cc2ccccc21)c1ccccn1` (stereo not given), the inhibition constant (Ki) in test [1] is 0.603 µM; in test [2], 1.12 µM; in test [3], 0.229 µM; in test [4], 0.0513 µM; in test [5], 0.741 µM.
On the same counts, the results for `CN(C)CCOC(=O)C1=C(Cc2ccccn2)c2ccccc2C1` are 14.8 µM, 17.4 µM, 5.37 µM, 4.9 µM and 8.91 µM.
As for `COc1ccc2c(c1)C(C(C)c1ccccn1)=C(CCN(C)C)C2` (stereo not given), the Ki in test [1] was 8.51 µM; in test [2], 8.91 µM; in test [3], 3.72 µM; in test [4], 1.02 µM; in test [5], 3.16 µM.
The like results for `CSc1ccc2c(c1)C(C(C)c1ccccn1)=C(CCN(C)C)C2` (stereo not given) were, in that order, 2 µM, 3.24 µM, 0.871 µM, 0.912 µM and 1.05 µM.
The like results for `CN(C)CCNC(=O)C1=C(Cc2ccccn2)c2ccccc2C1` were, in that order, 26.9 µM, 45.7 µM, 16.2 µM, 14.8 µM and 24 µM.
For `Cc1ccc2c(c1)C(C(C)c1ccccn1)=C(CCN(C)C)C2` (stereo not given), the Ki in test [1] was 3.24 µM; in test [2], 5.89 µM; in test [3], 1.62 µM; in test [4], 1.95 µM; in test [5], 2.51 µM.
On the same counts, the results for `CC(C1=C(CCN(C)C)Cc2ccc(F)cc21)c1ccccn1` (stereo not given) are 0.646 µM, 1.05 µM, 0.331 µM, 0.112 µM and 0.263 µM.
On the same counts, the results for `CCC(C1=C(CCN(C)C)Cc2cc(Cl)ccc21)c1ccccn1` (stereo not given) are 0.832 µM, 0.776 µM, 0.224 µM, 0.107 µM and 0.282 µM.
`CCC(C1=C(CCN(C)C)Cc2ccccc21)c1ccccn1` (stereo not given): the Ki in test [1] was 0.661 µM; in test [2], 0.676 µM; in test [3] it was 0.24 µM; in test [4] it was 0.0977 µM; in test [5], 0.309 µM.
On the same counts, the results for `Cc1ccc2c(c1)CC(CCN(C)C)=C2C(C)c1ccccn1` (stereo not given) are 1.41 µM, 1.45 µM, 0.562 µM, 0.589 µM and 0.501 µM.
On to `CC(C1=C(CCN2CCCCC2)Cc2ccccc21)c1ccccn1` (stereo not given), for which the Ki in test [1] was 1.91 µM; in test [2], 2.34 µM; in test [3] it was 1.91 µM; in test [4], 0.851 µM; in test [5], 1.78 µM.
Consider `CC(C1=C(CCN2CCCC2)Cc2ccccc21)c1ccccn1` (stereo not given), for which the Ki in test [1] was 1.23 µM; in test [2], 2 µM; in test [3] it was 1.05 µM; in test [4], 0.398 µM; in test [5], 1.91 µM.
The like results for `CN(C)CCC1=C(Cc2cccnc2)c2ccccc2C1` were, in that order, 7.41 µM, 7.94 µM, 3.72 µM, 5.37 µM and 8.13 µM.
On the same counts, the results for `CC(C1=C(CCN(C)C(C)C)Cc2ccccc21)c1ccccn1` (stereo not given) are 1 µM, 2.19 µM, 0.871 µM, 0.145 µM and 1.82 µM.
The like results for `CN(C)CCNC(=O)C1=C(Cc2cccnc2)c2ccccc2C1` were, in that order, 46.8 µM, 66.1 µM, 49 µM, 39.8 µM and 49 µM.
As for `CC(C1=C(CCN2CCOCC2)Cc2ccccc21)c1ccccn1` (stereo not given), the Ki is 4.17 µM in test [1]; 2.69 µM in test [2]; 4.37 µM in test [3]; 1.45 µM in test [4]; 2.75 µM in test [5].
With `CN(C)CCC1=C(C(C)(C)c2ccccn2)c2ccccc2C1`, the Ki is 0.0813 µM in test [1]; 0.372 µM in test [2]; 0.0525 µM in test [3]; 0.0155 µM in test [4]; 0.0257 µM in test [5].
